Experiments:
E. coli BL21 Amp^R = assay: Bacteria colony counting method; type: cell-based, Escherichia coli; settings: 100 µg peptide, 37 °C 2 h, plated, colonies counted after 12–18 h, n = 5, numbers only in Fig. 1b
Method: (§1) The antimicrobial activity assays were completed in a specialized laboratory. Red blood cells were collected from healthy adults at the 307 hospital laboratory. All participants gave informed consent to participate in the study.
(§2) Twenty microliters of the culture was diluted in LB (final volume 1 ml) and was evenly coated on an LB plate, inverted and incubated at 37 °C for 12–18 h and then the bacterial colonies were counted.

E. coli BL21 = assay: Bacteria colony counting method; type: cell-based, Escherichia coli; settings: 100 µg peptide, 37 °C 2 h, plated, colonies counted after 12–18 h, n = 5, numbers only in Fig. 1a
Method: as §1, §2

S. aureus (ATCC 25923) = assay: Bacteria colony counting method; type: cell-based, Staphylococcus aureus; settings: 100 µg peptide, 37 °C 2 h, plated, colonies counted after 12–18 h, n = 5, numbers only in Fig. 1c
Method: as §1, §2

[1] = test system: S. aureus Amp^R (ATCC BAA-44); assay: Bacteria colony counting method; type: cell-based, Staphylococcus aureus; settings: 100 µg peptide, 37 °C 2 h, plated, colonies counted after 12–18 h, n = 5, numbers only in Fig. 1d
Method: as §1, §2

S. Typhi (ATCC 19430) = assay: Bacteria colony counting method; type: cell-based, Salmonella Typhi; settings: 100 µg peptide, 37 °C 2 h, plated, colonies counted after 12–18 h, n = 5, numbers only in Fig. 1e
Method: as §1, §2

human red blood cells = assay: In vitro hemolysis assay; type: cell-based; settings: 1 h 37 °C, even at a much higher concentration than the effective antibacterial dose (up to 3000 µg/ml)
Method: as §1
Blood samples from healthy donors were treated with heparin to minimize clotting. The blood cell was washed three times with normal saline, and 8 µl samples were diluted to 100 µl in normal saline. The diluted blood cell (100 µl) was incubated with 100 µl of pCM19 (3000 µg/ml) for 1 h at 37 °C; then the same volume diluted blood cell was incubated with 100 µl of pCM12 (100, 200, 500, 1000, 2000, 3000 µg/ml) for 1 h at 37 °C. Centrifugation was carried out at 1000 rpm for 5 min at 4 °C. Each treatment was performed in triplicate. The absorbance of each sample was measured at 570 nm using a microplate reader.

Substance	antibacterial activity by colony counting (E. coli BL21 Amp^R)	antibacterial activity by colony counting (E. coli BL21)	antibacterial activity by colony counting (S. aureus (ATCC 25923))	antibacterial activity by colony counting [1]	antibacterial activity by colony counting (S. Typhi (ATCC 19430))	damage to red cell membranes (hemolysis), in words (human red blood cells)
CLRIGMRGREL [pCM11, pCM12 with the last amino acid residue removed]	lost its antibacterial activity	lost its antibacterial activity	lost its antibacterial activity	lost its antibacterial activity	lost its antibacterial activity	–
CLRIGMRGRELM [pCM12, 12 amino acids of pCM19 from which 7 amino acids at the carboxyl terminal were removed]	good inhibition and killing	effectively inhibited the growth	effectively inhibited the growth	good inhibition and killing	effectively inhibited the growth	caused no damage to the red cell membranes
CLRIGMRGRELMGGIGKTM [pCM19, 19 amino acids from positions 42 to 60 of hGlyrichin]	good inhibition and killing	effectively inhibited the growth	effectively inhibited the growth	good inhibition and killing	effectively inhibited the growth	caused no damage to the red cell membranes
GGIGKTM [flexible peptide, a GIG array, the portion that is different between pCM19 and pCM12]	almost completely lost the antibacterial activity	almost completely lost the antibacterial activity	almost completely lost the antibacterial activity	almost completely lost the antibacterial activity	almost completely lost the antibacterial activity	–
GICRLMMRRGLE [RC, a random array of pCM12]	almost completely lost its bactericidal activity	almost completely lost its bactericidal activity	almost completely lost its bactericidal activity	almost completely lost its bactericidal activity	almost completely lost its bactericidal activity	–

Source: article PMC4993737, “Antibacterial activity identification of pCM19 and pCM12 derived from hGlyrichin” (SpringerPlus, 2016)
